Results as given in PubChem BioAssay (NCI).
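Step 1: Grow cells in 96-well plates. Step 2: Expose to compound for 48 hours at 5 concentrations. Step 3: Interpolate endpoints linearly; if unreached, use highest concentration. At the GI50, growth is halved. The concentration for full growth arrest is given as TGI.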

Experiments:
Experiment in all cases: growth of human tumour cells (NCI), 48 h
SF-268 CNS = tested on: SF-268 CNS
A549 NSCLC = tested on: A549 NSCLC
HCT-15 colon = tested on: HCT-15 colon
HOP-62 NSCLC = tested on: HOP-62 NSCLC
UACC-62 melanoma = tested on: UACC-62 melanoma
TK-10 renal = tested on: TK-10 renal
U251 CNS = tested on: U251 CNS
NCI-H460 lung = tested on: NCI-H460 lung
KM12 colon = tested on: KM12 colon
K-562 leukemia = tested on: K-562 leukemia
IGROV1 ovarian = tested on: IGROV1 ovarian
SR leukemia = tested on: SR leukemia
SF-539 CNS = tested on: SF-539 CNS
OVCAR-5 ovarian = tested on: OVCAR-5 ovarian
ACHN renal = tested on: ACHN renal
RPMI-8226 leukemia = tested on: RPMI-8226 leukemia
MOLT-4 leukemia = tested on: MOLT-4 leukemia
NCI-H226 lung = tested on: NCI-H226 lung
NCI-H522 lung = tested on: NCI-H522 lung
RXF 393 renal = tested on: RXF 393 renal
HCC-2998 colon = tested on: HCC-2998 colon
M14 melanoma = tested on: M14 melanoma
MALME-3M melanoma = tested on: MALME-3M melanoma
SK-MEL-2 melanoma = tested on: SK-MEL-2 melanoma
SNB-75 CNS = tested on: SNB-75 CNS
HOP-92 NSCLC = tested on: HOP-92 NSCLC
HL-60(TB) leukemia = tested on: HL-60(TB) leukemia
NCI-H23 lung = tested on: NCI-H23 lung
CCRF-CEM leukemia = tested on: CCRF-CEM leukemia
KM20L2 colon = tested on: KM20L2 colon
SK-OV-3 ovarian = tested on: SK-OV-3 ovarian
EKVX NSCLC = tested on: EKVX NSCLC
HT29 colon = tested on: HT29 colon
SW-620 colon = tested on: SW-620 colon
UACC-257 melanoma = tested on: UACC-257 melanoma
786-0 renal = tested on: 786-0 renal
UO-31 renal = tested on: UO-31 renal
OVCAR-3 ovarian = tested on: OVCAR-3 ovarian
SF-295 CNS = tested on: SF-295 CNS
HCT-116 colon = tested on: HCT-116 colon
SK-MEL-28 melanoma = tested on: SK-MEL-28 melanoma
SN12C renal = tested on: SN12C renal
OVCAR-8 ovarian = tested on: OVCAR-8 ovarian
A498 renal = tested on: A498 renal
LOX IMVI melanoma = tested on: LOX IMVI melanoma
COLO 205 colon = tested on: COLO 205 colon
SK-MEL-5 melanoma = tested on: SK-MEL-5 melanoma
SNB-19 CNS = tested on: SNB-19 CNS
PC-3 prostate = tested on: PC-3 prostate
MCF7 breast = tested on: MCF7 breast
MDA-N = tested on: MDA-N
MDA-MB-231 breast = tested on: MDA-MB-231 breast
OVCAR-4 ovarian = tested on: OVCAR-4 ovarian
DU-145 prostate = tested on: DU-145 prostate
HS 578T breast = tested on: HS 578T breast
BT-549 breast = tested on: BT-549 breast
NCI/ADR-RES ovarian = tested on: NCI/ADR-RES ovarian
T-47D breast = tested on: T-47D breast
MDA-MB-435 = tested on: MDA-MB-435
CAKI-1 renal = tested on: CAKI-1 renal

CC(=O)[O-].CC(=O)[O-].O=C(N/N=C/c1cc(Cl)cc(Cl)c1O)c1ccncc1.[Cu+2]
TGI (SF-268 CNS): > 100 µM
TGI (A549 NSCLC): > 100 µM
TGI (HCT-15 colon): > 100 µM
TGI (HOP-62 NSCLC): > 100 µM
TGI (UACC-62 melanoma): > 100 µM
TGI (TK-10 renal): > 100 µM
TGI (U251 CNS): > 100 µM
TGI (NCI-H460 lung): > 100 µM
TGI (KM12 colon): > 100 µM
TGI (K-562 leukemia): > 100 µM
TGI (IGROV1 ovarian): > 100 µM
TGI (SR leukemia): > 100 µM
TGI (SF-539 CNS): > 100 µM
TGI (OVCAR-5 ovarian): > 100 µM
TGI (ACHN renal): > 100 µM
TGI (RPMI-8226 leukemia): > 100 µM
TGI (MOLT-4 leukemia): > 100 µM
TGI (NCI-H226 lung): > 100 µM
TGI (NCI-H522 lung): > 100 µM
TGI (RXF 393 renal): > 100 µM
TGI (HCC-2998 colon): > 100 µM
TGI (M14 melanoma): > 100 µM
TGI (MALME-3M melanoma): > 100 µM
GI50 (SK-MEL-2 melanoma): > 100 µM
TGI (SK-MEL-2 melanoma): > 100 µM
TGI (SNB-75 CNS): > 100 µM
GI50 (HOP-92 NSCLC): > 100 µM
TGI (HOP-92 NSCLC): > 100 µM
TGI (HL-60(TB) leukemia): > 100 µM
TGI (NCI-H23 lung): > 100 µM
TGI (CCRF-CEM leukemia): > 100 µM
TGI (KM20L2 colon): > 100 µM
TGI (SK-OV-3 ovarian): > 100 µM
TGI (EKVX NSCLC): > 100 µM
TGI (HT29 colon): > 100 µM
TGI (SW-620 colon): > 100 µM
TGI (UACC-257 melanoma): > 100 µM
TGI (786-0 renal): > 100 µM
TGI (UO-31 renal): > 100 µM
TGI (OVCAR-3 ovarian): > 100 µM
TGI (SF-295 CNS): > 100 µM
TGI (HCT-116 colon): > 100 µM
TGI (SK-MEL-28 melanoma): > 100 µM
TGI (SN12C renal): > 100 µM
TGI (OVCAR-8 ovarian): > 100 µM
TGI (A498 renal): > 100 µM
TGI (LOX IMVI melanoma): > 100 µM
TGI (COLO 205 colon): > 100 µM
TGI (SK-MEL-5 melanoma): > 100 µM
TGI (SNB-19 CNS): > 100 µM

O=c1c(F)cn(Cc2c(Cl)cccc2Cl)c(=O)n1Cc1c(Cl)cccc1Cl
TGI (SF-268 CNS): > 31.6 µM
TGI (A549 NSCLC): > 31.6 µM
TGI (PC-3 prostate): > 31.6 µM
TGI (MCF7 breast): > 31.6 µM
TGI (HCT-15 colon): > 31.6 µM
TGI (HOP-62 NSCLC): > 31.6 µM
TGI (MDA-N): > 31.6 µM
TGI (UACC-62 melanoma): > 31.6 µM
TGI (TK-10 renal): > 31.6 µM
TGI (MDA-MB-231 breast): > 31.6 µM
TGI (OVCAR-4 ovarian): > 31.6 µM
TGI (U251 CNS): > 31.6 µM
TGI (NCI-H460 lung): > 31.6 µM
TGI (KM12 colon): > 31.6 µM
TGI (K-562 leukemia): > 31.6 µM
TGI (IGROV1 ovarian): > 31.6 µM
TGI (SR leukemia): > 31.6 µM
TGI (SF-539 CNS): > 31.6 µM
TGI (OVCAR-5 ovarian): > 31.6 µM
TGI (ACHN renal): > 31.6 µM
TGI (RPMI-8226 leukemia): > 31.6 µM
TGI (DU-145 prostate): > 100 µM
TGI (MOLT-4 leukemia): > 31.6 µM
TGI (NCI-H226 lung): > 100 µM
TGI (HS 578T breast): > 31.6 µM
TGI (BT-549 breast): > 31.6 µM
TGI (NCI-H522 lung): > 31.6 µM
TGI (RXF 393 renal): > 31.6 µM
TGI (HCC-2998 colon): > 31.6 µM
TGI (M14 melanoma): > 31.6 µM
TGI (MALME-3M melanoma): > 31.6 µM
TGI (SK-MEL-2 melanoma): > 31.6 µM
TGI (SNB-75 CNS): > 31.6 µM
TGI (HOP-92 NSCLC): > 31.6 µM
TGI (HL-60(TB) leukemia): > 31.6 µM
TGI (NCI/ADR-RES ovarian): > 31.6 µM
TGI (NCI-H23 lung): > 31.6 µM
TGI (CCRF-CEM leukemia): > 31.6 µM
TGI (T-47D breast): > 31.6 µM
TGI (SK-OV-3 ovarian): > 31.6 µM
TGI (EKVX NSCLC): > 31.6 µM
TGI (HT29 colon): > 31.6 µM
TGI (SW-620 colon): > 31.6 µM
TGI (UACC-257 melanoma): > 31.6 µM
TGI (786-0 renal): > 31.6 µM
TGI (UO-31 renal): > 31.6 µM
TGI (OVCAR-3 ovarian): > 31.6 µM
TGI (MDA-MB-435): > 31.6 µM
TGI (SF-295 CNS): > 31.6 µM
TGI (HCT-116 colon): > 31.6 µM
TGI (SK-MEL-28 melanoma): > 31.6 µM
TGI (SN12C renal): > 31.6 µM
TGI (OVCAR-8 ovarian): > 31.6 µM
TGI (A498 renal): > 31.6 µM
TGI (LOX IMVI melanoma): > 31.6 µM
TGI (COLO 205 colon): > 31.6 µM
TGI (SK-MEL-5 melanoma): > 31.6 µM
TGI (SNB-19 CNS): > 100 µM
TGI (CAKI-1 renal): > 31.6 µM
